In patent US20240190856A1, “MELANOCORTIN-4 RECEPTOR AGONIST” (LG CHEM, LTD., priority 2021, published 2024):
Where a name gives a salt, the structure may show the parent alone.

What was measured:
[1] = target: T1, MC4R (melanocortin-4 receptor) (Homo sapiens, UniProt P32245); assay: Luciferase assay (CRE-LUC, HEK MC4R-Luc cells); type: cell-based; details: 5 h incubation, concentration inducing 50% of each agonist's own maximum luminescence
T1 construct: expressed in transfected cells
Protocol: In order to measure the agonist ability against MC4R (melanocortin-4 receptor), a cell line that permanently expresses the luciferase gene (CRE-LUC) under the control of MC4R and CRE (cAMP response element) was established. After a mammalian cell expression vector (pCDNA3 (Neo)) (Invitrogen) containing the MC4R gene was prepared, human embryonic kidney (HEK) cell lines were transformed by using Lipofectamine 2000 (Invitrogen) together with a vector (pCRE-Luc)(Stratagen) expressing a luciferase gene (CRE-LUC) under the control of a cAMP response element (CRE). Transformed cell lines (HEK MC4R-Luc) were incubated in a 37° C. incubator in the presence of 5% CO2 for 24 hours by using Dulbecco's Modified Eagles Medium (DMEM) containing 10% Heat-Inactivated Fetal Bovine Serum (GIBCO/BRL). The cell lines were incubated for four days in the presence of Dulbecco's Modified Eagles Medium (DMEM) containing 10 ml of selection medium (10% Heat-Inactivated Fetal Bovine Serum (GIBCO/BRL), 100 unit/ml of penicillin (GIBCO/BRL), 100 unit/ml of streptomycin (GIBCO/BRL), 800 μg/ml of Geneticin (G418) (GIBCO/BRL). The process of removing cells killed by the selection medium by replacing the medium with 10 ml of a new selection medium was repeated three times, once every 4 days. Individual colonies formed by the finally selected and propagated clones were transferred under a microscope to a 24-well cell culture plate containing 1 ml of selection medium per well and incubated for 4 days. Forskolin (SIGMA) was treated to a final concentration of 10 μM, and then incubated for five hours in a 37° C. incubator in the presence of 5% CO2. Each well was treated with 50 μl of a Bright-Glo luciferase reagent (Promega) and left at room temperature for 15 minutes, and then the luminescence of each well was measured by using a luminometer (Victor).
HEK MC4R-Luc cells were added to each well of a 96-well luminometer cell culture plate (Costar) to a size of 2.5×10^4 cells in 100 μl of a culture medium and then incubated in a 37° C. incubator in the presence of 6% CO2 for 18 hours. […] Each well was treated with 50 μl of a Bright-Glo luciferase reagent (Promega) and left at room temperature for five minutes, and then the luminescence of each well was measured by using a luminometer (Victor). […] EC0.5 MSH is expressed as a concentration that induces 50% of the maximum amount of luminescence that can be induced by NDP-α-MSH, and EC50 is expressed as a concentration that induces 50% of the maximum amount of luminescence that can be induced by each agonist. The measurements were measured using statistical software (Prizm).

MC4R [2] = target: T2, MC4R (Homo sapiens, UniProt P32245); assay: Binding affinity (125I-NDP-α-MSH displacement, membranes of HEK-293 cells expressing MC4R); parameters: expressed in transfected cells; host or cells: HEK-293 cells, membrane preparation; details: 0.02 nM 125I-NDP-α-MSH, 37° C. for two hours, pH 7.0
From the text: Five subtypes of melanocortin receptor (MCR) in vivo are known, and it is known that MC4R, which is Subtype 4, is involved in energy metabolism and weight control. Since other MCR subtypes are involved in the regulation of various functions in vivo such as skin pigmentation, energy homeostasis, and exocrine functions, securing selectivity for MC4R of MC4R agonist compounds is very important in preventing possible side effects in the future. Therefore, the receptor binding abilities of MC4R agonists for each MCR subtype were measured.
After the CHO-K 1 cell line expressing human recombinant MC1R and the HEK-293 cell lines expressing MC3R, MC4R and MC5R were established, membranes were collected from each cell line. In a 96-well cell culture plate, 3 μg MC1R membrane and 0.04 nM ^125I-NDP-α-MSH per well were reacted at 37° C. for two hours. 3 μg MC3R and MC5R membrane and 0.035 nM ^125I-NDP-α-MSH were reacted at 37° C. for one hour, and […] MC4R membrane and 0.02 nM ^125I-NDP-α-MSH were reacted at 37° C. for two hours. At this time, 25 mM HEPES-KOH adsorption buffer (pH 7.0) containing MCR agonist diluted at each step concentration was added to each well and reacted. The reacted solution was transferred to a filter and washed with an adsorption buffer, and then radioactivity was measured. The value excluding the non-specific binding amount in the presence of 1 μM (MC1R) and 3 μM (MC3R, MC4R, MC5R) of NDP-α-MSH from each total binding amount was used as specific binding amounts of ^125I-NDP-α-MSH. The degree to which the ^125I-NDP-a-MSH specific binding was inhibited by the agonist diluted at each step concentration was measured. IC50 was expressed as the concentration of each agonist that inhibited specific binding of 50% of ^125I-NDP-α-MSH.
Tables 4-1 and 4-2 show the results of measuring the binding of melanocortin receptors of the compounds obtained by the above experiment in Ki (nM) units.
Target sequence in this assay (P32245 whole entry): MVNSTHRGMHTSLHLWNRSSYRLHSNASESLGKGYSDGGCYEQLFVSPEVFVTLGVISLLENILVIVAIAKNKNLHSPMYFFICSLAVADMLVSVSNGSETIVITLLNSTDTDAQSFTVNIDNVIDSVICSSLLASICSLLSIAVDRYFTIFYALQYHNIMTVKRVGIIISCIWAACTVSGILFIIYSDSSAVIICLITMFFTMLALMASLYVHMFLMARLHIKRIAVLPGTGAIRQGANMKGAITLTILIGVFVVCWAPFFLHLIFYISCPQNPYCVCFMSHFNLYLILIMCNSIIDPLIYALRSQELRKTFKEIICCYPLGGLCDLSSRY

MC4R [3] = target: T2, MC4R; assay: cAMP assay (cAMP Hunter Gs-coupled CHO-K1 cell line); type: cell-based; parameters: expressed in transfected cells; host or cells: CHO-K1 (cAMP Hunter Gs-coupled cell line); details: CHO-K1 cells overexpressing MC4R, 37° C. for 30 minutes
From the text: The melanocortin receptor is a type of G-protein coupled receptor (GPCR), and the main role of G-protein is to activate secondary transducers to regulate cellular responses to many physiological stimuli through signal transduction. MC4R is a Gs-coupled receptor, and it is known that if MC4R interacts with an agonist, adenylate cyclase (AC) is activated to increase the concentration of cyclic AMP (cAMP), which is one of the secondary transducers in cells. Therefore, it is possible to evaluate the activity of melanocortin receptors by measuring the generation of cAMP signals.
After cAMP Hunter Gs-coupled cell lines (CHO-K1 cell line) in which each of MC1R, MC3R, MC4R and MC5R was overexpressed were established so that the increase in the cAMP level in cells due to agonist reaction was measurable, the cells were inoculated into each well of a white cell culture plate and incubated for 24 hours in a 37° C. incubator in the presence of 5% CO2. After the incubation, the medium was removed, and 15 μl of a 2:1 HBBS/10 mM HEPES:cAMP XS+Ab reagent was added. After 5 μl of the sample diluted 4 times with buffer was added, the vehicle concentration was set to 1%, and the MC4R agonist compound diluted at each step concentration was added, followed by reaction at 37° C. for 30 minutes. The activity (%) of each agonist compound is expressed as 100% ×(average RLU value of sample'average RLU value of vehicle control)/(average RLU value of max control−average RLU value of vehicle control), and the value was analyzed by CBIS data analysis suite (ChemInnovation, CA).
Target sequence in this assay (P32245 whole entry, species assumed): as the sequence (P32245 whole entry) above

T1 sequence (P32245 whole entry, species assumed): as the sequence (P32245 whole entry) above

Row | SMILES | EC50 [1] | Ki (MC4R [2]; Table 4-1) | EC50 (MC4R [3]) | Ki (MC4R [2]; Table 4-2)
1 | CC(C)C(=O)N([C@H]1C[C@@H](C(=O)N2CCOCC2)N(C(=O)[C@@H]2CN(C(C)(C)C)C[C@H]2c2ccc(F)cc2F)C1)[C@H]1CC[C@@H](C)CC1 [Example 2, N-((3S,5S)-1-((3S,4R)-1-(tert-butyl)-4-(2,4-difluorophenyl)pyrrolidine-3-carbonyl)-5-(morpholine-4-carbonyl)pyrrolidin-3-yl)-N-((1s,4R)-4-methylcyclohexyl)isobutyramide hydrochloride] | 2.47 nM | 240 nM | 59.6 nM | 
2 | CC(C)C(=O)N([C@H]1C[C@@H](C(=O)N2CCOCC2)N(C(=O)[C@@H]2CN(C(C)(C)C)C[C@H]2c2ccc(Cl)cc2F)C1)[C@H]1CC[C@@H](C)CC1 [Example 3, N-((3S,5S)-1-((3S,4R)-1-(tert-butyl)-4-(4-chloro-2-fluorophenyl)pyrrolidine-3-carbonyl)-5-(morpholine-4-carbonyl)pyrrolidin-3-yl)-N-((1s,4R)-4-methylcyclohexyl)isobutyramide hydrochloride] | 0.922 nM |  | 49.6 nM | 86 nM
3 | CC(C)(C)C(=O)N([C@H]1C[C@@H](C(=O)N2CCOCC2)N(C(=O)[C@@H]2CN(C(C)(C)C)C[C@H]2c2ccc(Cl)cc2F)C1)[C@H]1CC[C@@H](C)CC1 [Example 4, N-((3S,5S)-1-((3S,4R)-1-(tert-butyl)-4-(4-chloro-2-fluorophenyl)pyrrolidine-3-carbonyl)-5-(morpholine-4-carbonyl)pyrrolidin-3-yl)-N-((1s,4R)-4-methylcyclohexyl)pivalamide hydrochloride] | 0.555 nM | 30 nM | 26.2 nM | 

Further compounds by falling EC50 [1], results first:

Row | EC50 [1] | Ki (MC4R [2]; Table 4-1) | EC50 (MC4R [3]) | Ki (MC4R [2]; Table 4-2) | SMILES
4 | 4.04 nM |  | 51.4 nM | 32 nM | CC1(C)CCC(N(C(=O)C(C)(C)C)[C@H]2C[C@@H](C(=O)N3CCOCC3)N(C(=O)[C@@H]3CN(C(C)(C)C)C[C@H]3c3ccc(Cl)cc3)C2)CC1 [Example 6, N-((3S,5S)-1-((3S,4R)-1-(tert-butyl)-4-(4-chlorophenyl)pyrrolidine-3-carbonyl)-5-(morpholine-4-carbonyl)pyrrolidin-3-yl)-N-(4,4-dimethylcyclohexyl)pivalamide hydrochloride]
5 | 0.629 nM | 74 nM | 58.9 nM |  | CC(C)(C)C(=O)N([C@H]1C[C@@H](C(=O)N2CCOCC2)N(C(=O)[C@@H]2CN(C(C)(C)C)C[C@H]2c2ccc(F)cc2F)C1)[C@H]1CC[C@@H](C)CC1 [Example 1, N-((3S,5S)-1-((3S,4R)-1-(tert-butyl)-4-(2,4-difluorophenyl)pyrrolidine-3-carbonyl)-5-(morpholine-4-carbonyl)pyrrolidin-3-yl)-N-((1s,4R)-4-methylcyclohexyl)pivalamide hydrochloride]
